Consider one molecule from patent US20260256734A1, “COMPOSITIONS COMPRISING SILYMARIN (OR) CURCUMIN AND METFORMIN, METHODS AND APPLICATIONS THEREOF” (ACUBIOSYS PRIVATE LIMITED, priority 2022, published 2026).

The test system of assay [1] is inflammatory markers (IL-17, IL-1β and IL-23) in IMQ-induced differentiated HaCaT cells. In words: In vitro IMQ-induced psoriatic model, inflammatory markers in conditioned media. The note with it: IMQ 100 μM, formulation in culture media 48 hr, mean ± S.D. It counts as cell-based. The text has this: This study was designed to investigate the effect of a Metf+SMR and Metf+SMR hydro-gel formulation on an IMQ-induced psoriasis-like mouse model. The composition of the hydrogel formulation prepared by using 1.5% crosslinked polyacrylic acid polymer and 1.5% triethanolamine is provided. In doing so, the Applicant expected to obtain supportive evidence of a role for the formulation in treating psoriasis. For that the Applicant has developed hydrogel-based formulations: 1. Metformin and 2. Metformin-silybin (Metf+SMR) 3. Metformin-curcumin (Metf+CMR) and studied invitro cell toxicity in A431 cells by MTT assay and invitro IMQ-induced psoriatic modal using HaCaT cells and determined the inflammatory markers (IL-1β, IL-23 and IL-17).
To set up an efficient and consistent model for psoriasis in vitro, differentiated HaCaT cells were used to screen our test formulations. HaCaT cells were incubated with 2 mM calcium chloride (CaCl2) to achieve differentiation. Induction of psoriatic-like inflammation was achieved by treating the cells with Imiquimod (IMQ) ([…]). The differentiation and inflammation were confirmed by microscopic images. After inflammation, the cells were treated with different formulation dissolved in culture media and incubated for 48 hr. Clobetasol cream formulation was used as a positive control. After incubation, the conditioned media was collected and used for estimation of inflammatory markers (IL-17, IL-1β and IL-23).

Assay [2] concerns IMQ-induced psoriasis model in C57BL/6 Mice. Put plainly: IMQ induced psoriatic plaque model, topical hydrogel treatment. In kind it is in vivo. How it is done:
Hair was shaved along the back of the anesthetized mouse from shoulder to hip by using electric clippers or depilatory cream. Psoriasis-like lesions were induced by a daily topical application of a commercially available IMQ cream (62.5 mg/day for 5 days D1-D5) on the shaved back skin of C57BL/6 mice.
Animals were randomly assigned to the different groups after reaching a maximum score of 4 with respect to erythema, scale, and thickness. Animals that didn't score 4 were excluded from the experiment. Sham psoriasis animals were administered with Vaseline cream; IMQ animals, were only challenged with imiquimod cream, and IMQ animals were treated with a hydrogel that was topically applied using a nylon mesh for even distribution of the hydrogel, for the whole duration of the experiment.
To score the severity of inflammation of the back skin, an objective scoring system was developed based on the clinical Psoriasis Area and severity index (PASI), except that for the mouse model the affected skin area is not taken into account in the overall score. Erythema, scaling, and thickening was scored independently on a scale from 0 to 4:0, none; 1, slight; 2, moderate; 3, marked; 4, very marked. The level of erythema was scored using a scoring table with red taints. The cumulative score (erythema plus scaling plus thickening) served as a measure of the severity of inflammation (scale 0-12).
• 0: None; 1: Slight; 2: Moderate; 3: Marked; 4: Very Marked.
One of the important characteristic feature of psoriasis and the psoriasis-like skin inflammation was abnormal increase of epidermal skin thickness which was measured by vernier calipers.
The IMQ induced, skin tissue sections (H&E stain) were collected after ten days (D1-D10) from all groups.

For the molecule `CC(C)Cn1cnc2c(N)nc3ccccc3c21` [IMQ, Imiquimod], in assay [1], the “IL-1β (pg/mL), mean concentration” value is 93.63 ± 2.87 pg/mL; the “IL-17 (pg/mL), mean concentration” value is listed as 99.82 ± 3.03 pg/mL; the “IL-23 (pg/mL), mean concentration” value is 98.73 ± 3.27 pg/mL. Further, the “epidermal skin thickness with IMQ only” value in assay [2] (increased from 1.15 mm, IMQ only applied topically) amounted to 2.22 mm. In assay [2] (scale 0-12, day 5, IMQ only), the “cumulative score on day 5” value was 12. The “cumulative score (erythema+scaling+skin thickness) on day 10” value in assay [2] (scale 0-12, day 10) turned out to be 12. In addition, in assay [2] (treatment D6-D10), the spleen size (spleen index) is 15 mg/g.
